Assay results taken from ChEMBL document CHEMBL1777777, “Design, synthesis of symmetrical bivalent mimetics of annonaceous acetogenins and their cytotoxicities” (Bioorg Med Chem Lett, 2011).
The source made the active and inactive calls. No cut-off for these calls is given here.

Legend:
MCF7 = test: Cytotoxicity against human MCF7 cells after 74 hrs by MTT assay; format: functional
SGC-7901 = test: Cytotoxicity against human SGC7901 cells after 74 hrs by MTT assay; format: functional
HCT-116 = test: Cytotoxicity against human HCT116 cells after 74 hrs by MTT assay; format: functional
HT-29 = test: Cytotoxicity against human HT-29 cells after 74 hrs by MTT assay; format: functional
[1] = Cytotoxicity against human HLF cells after 74 hrs by MTT assay; format: cell-based; conditions: for GI50 at 74 h: HLF cells; for GI50: hlf, 74 h
[2] = Cytotoxicity against human BEAS2B cells after 74 hrs by MTT assay; format: cell-based, BEAS-2B; conditions: for GI50 at 74 h: BEAS2B cells; for GI50: beas-2b, 74 h

| Compound | GI50 (MCF7; MCF7, 74 h) | GI50 (SGC-7901; SGC-7901, 74 h) | GI50 (HCT-116; HCT-116, 74 h) | GI50 (HT-29; HT-29, 74 h) | GI50 at 74 h [1] | GI50 at 74 h [2] | GI50 [1] | GI50 [2] | GI50 (MCF7) | GI50 (SGC-7901) | GI50 (HCT-116) | GI50 (HT-29) |
| --- | --- | --- | --- | --- | --- | --- | --- | --- | --- | --- | --- | --- |
| COC1=C(OC)C(=O)C(CCCCCCCCCN2CCN(CCCCCCCCCC3=C(C)C(=O)C(OC)=C(OC)C3=O)CC2)=C(C)C1=O | 0.4 µM | 0.49 µM | 0.5 µM | > 10 µM | > 10 µM | > 10 µM |  |  |  |  |  |  |
| C[C@H]1C=C(CCCCCCCC(O)CNc2ccc(NCC(O)CCCCCCCC3=C[C@H](C)OC3=O)cc2)C(=O)O1 (mixture of isomers) | 7.37 µM | 4.4 µM | 2.49 µM | 0.87 µM |  |  | Not Active | Not Active |  |  |  |  |
| C[C@H]1C=C(CCCCCCCC(O)CNCCCNCC(O)CCCCCCCC2=C[C@H](C)OC2=O)C(=O)O1 (mixture of isomers) |  |  |  |  |  |  | Not Active | Not Active | inactive | inactive | inactive | inactive |
| C[C@H]1C=C(CCCCCCCC(O)CN(C)CCCN(C)CC(O)CCCCCCCC2=C[C@H](C)OC2=O)C(=O)O1 (mixture of isomers) | 2.38 µM | 4.12 µM | > 10 µM | 1.5 µM | 4.42 µM | 10.6 µM |  |  |  |  |  |  |
| COc1c(C)c(CCCCCCCCCN2CCN(CCCCCCCCCc3c(C)c(OC)c(OC)c(OC)c3OC)CC2)c(OC)c(OC)c1OC |  |  |  |  |  |  | Not Active | Not Active | inactive | inactive | inactive | inactive |
| C[C@H]1C=C(CCCCCCCC(O)CN2CCN(CC(O)CCCCCCCC3=C[C@H](C)OC3=O)CC2)C(=O)O1 (mixture of isomers) | 2.19 µM | 1.67 µM | 3.72 µM | > 10 µM | > 10 µM |  |  | Not Active |  |  |  |  |
| CCCCCCCCCC[C@H](O)COCCOC[C@@H](O)CCCCCCCCCCCCC1=C[C@H](C)OC1=O | 0.26 µM | 0.06 µM | 0.11 µM | 0.35 µM | > 10 µM | > 10 µM |  |  |  |  |  |  |
| C[C@H]1C=C(CCCCCCCC(O)CN(C)CCN(C)CC(O)CCCCCCCC2=C[C@H](C)OC2=O)C(=O)O1 (mixture of isomers) | 3.16 µM | 6.22 µM |  |  | > 10 µM | > 10 µM |  |  |  |  | inactive | inactive |
